Source: patent US20120220562A1, “Anti-Viral Compounds” (ABBOTT LABAORATORIES, priority 2011, published 2012)

What follows are molecules tested on HCV 1b-Con1 replicon (assay: HCV 1b-Con1 replicon assay in the presence of 5% FBS). Details: Hepatitis C virus.
Type: cell-based

| SMILES | EC50 |
| --- | --- |
| CCC1(COc2c(F)cc(N3[C@@H](c4ccc5nc([C@@H]6CCCN6C(=O)[C@@H](NC(=O)OC)C(C)C)[nH]c5c4)CC[C@@H]3c3ccc4nc([C@@H]5CCCN5C(=O)[C@@H](NC(=O)OC)C(C)C)[nH]c4c3)cc2F)COC1 [Example 2.5, methyl {(2S)-1-[(2S)-2-{6-[(2R,5R)-1-{4-[(3-ethyloxetan-3-yl)methoxy]-3,5-difluorophenyl}-5-{2-[(2S)-1-{(2S)-2-[(methoxycarbonyl)amino]-3-methylbutanoyl}pyrrolidin-2-yl]-1H-benzimidazol-6-yl}pyrrolidin-2-yl]-1H-benzimidazol-2-yl}pyrrolidin-1-yl]-3-methyl-1-oxobutan-2-yl}carbamate] | < 0.1 nM |
| COC(=O)N[C@H](C(=O)N1C(c2nc3cc([C@H]4CC[C@H](c5ccc6[nH]c([C@@H]7C[C@@H]8CCC[C@@H]8N7C(=O)[C@@H](NC(=O)OC)C(C)C)nc6c5)N4c4cc(F)c(N5CCCCC5)c(F)c4)ccc3[nH]2)C[C@@H]2CCC[C@@H]21)C(C)C (stereo partly drawn) [Example 4.18, methyl {(2S)-1-[(2S,3aS,6aS)-2-{5-[(2R,5R)-1-[3,5-difluoro-4-(piperidin-1-yl)phenyl]-5-{2-[(3aS,6aS)-1-{(2S)-2-[(methoxycarbonyl)amino]-3-methylbutanoyl}octahydrocyclopenta[b]pyrrol-2-yl]-1H-benzimidazol-5-yl}pyrrolidin-2-yl]-1H-benzimidazol-2-yl}hexahydrocyclopenta[b]pyrrol-1(2H)-yl]-3-methyl-1-oxobutan-2-yl}carbamate] | < 0.1 nM |
| COC(=O)N[C@H](C(=O)N1CCC[C@H]1c1nc2cc([C@H]3CC[C@H](c4ccc5[nH]c([C@@H]6CCCN6C(=O)[C@@H](NC(=O)OC)C(C)C)nc5c4)N3c3cc(F)c(N4CCC(C(C)(C)C)CC4)c(F)c3)ccc2[nH]1)C(C)C [Example 5.9, methyl {(2S)-1-[(2S)-2-{5-[(2R,5R)-1-[4-(4-tert-butylpiperidin-1-yl)-3,5-difluorophenyl]-5-{2-[(2S)-1-{(2S)-2-[(methoxycarbonyl)amino]-3-methylbutanoyl}pyrrolidin-2-yl]-1H-benzimidazol-5-yl}pyrrolidin-2-yl]-1H-benzimidazol-2-yl}pyrrolidin-1-yl]-3-methyl-1-oxobutan-2-yl}carbamate] | < 0.1 nM |
| COC(=O)NC(C(=O)N1CCC[C@H]1c1nc2cc([C@@H]3CC[C@@H](c4ccc5[nH]c([C@@H]6CCCN6C(=O)C(NC(=O)OC)=C(C)C)nc5c4)N3c3ccc(C(C)(C)C)cc3)ccc2[nH]1)=C(C)C [Example 3.17, dimethyl {[(2S,5S)-1-(4-tert-butylphenyl)pyrrolidine-2,5-diyl]bis[1H-benzimidazole-5,2-diyl(2S)pyrrolidine-2,1-diyl(3-methyl-1-oxobut-2-ene-1,2-diyl)]}biscarbamate] | < 0.1 nM |
| CC(C)(C)OC(=O)NCC(=O)N1CCC[C@H]1c1nc2cc([C@@H]3CC[C@@H](c4ccc5[nH]c([C@@H]6CCCN6C(=O)CNC(=O)OC(C)(C)C)nc5c4)N3c3ccc(N4CCCCC4)c(F)c3)ccc2[nH]1 [Example 3.14, tert-butyl {2-[(2S)-2-(5-{(2S,5S)-5-{2-[(2S)-1-{[(tert-butoxycarbonyl)amino]acetyl}pyrrolidin-2-yl]-1H-benzimidazol-5-yl}-[3-fluoro-4-(piperidin-1-yl)phenyl]pyrrolidin-2-yl}-1H-benzimidazol-2-yl)pyrrolidin-1-yl]-2-oxoethyl}carbamate] | > 10 nM |
| COC(=O)N[C@H](C(=O)N1C[C@H](F)C[C@H]1c1nc2cc([C@H]3CC[C@H](c4ccc5[nH]c([C@@H]6C[C@@H](F)CN6C(=O)[C@@H](NC(=O)OC)C(C)C)nc5c4)N3c3cc(F)c(N4CCCCC4)c(F)c3)ccc2[nH]1)C(C)C [Example 4.59, methyl {(2S)-1-[(2S,4R)-2-{5-[(2R,5R)-1-[3,5-difluoro-4-(piperidin-1-yl)phenyl]-5-{2-[(2S,4R)-4-fluoro-1-{(2S)-2-[(methoxycarbonyl)amino]-3-methylbutanoyl}pyrrolidin-2-yl]-1H-benzimidazol-5-yl}pyrrolidin-2-yl]-1H-benzimidazol-2-yl}-4-fluoropyrrolidin-1-yl]-3-methyl-1-oxobutan-2-yl}carbamate] | < 0.1 nM |
| COC(=O)N[C@H](C(=O)N1CCC[C@H]1c1nc2cc([C@H]3CC[C@H](c4cc5nc([C@@H]6CCCN6C(=O)[C@@H](NC(=O)OC)C6CCCC6)[nH]c5cc4F)N3c3cc(F)c(N4CCC(C(C)(C)C)CC4)c(F)c3)c(F)cc2[nH]1)C1CCCC1 [Example 4.28, dimethyl ({(2R,5R)-1-[4-(4-tert-butylpiperidin-1-yl)-3,5-difluorophenyl]pyrrolidine-2,5-diyl}bis{(6-fluoro-1H-benzimidazole-5,2-diyl)(2S)pyrrolidine-2,1-diyl[(1S)-1-cyclopentyl-2-oxoethane-2,1-diyl]})biscarbamate] | < 0.1 nM |
| COC(=O)N[C@H](C(=O)N1CCC[C@H]1c1nc2cc([C@H]3CC[C@H](c4ccc5nc([C@@H]6CCCN6C(=O)[C@@H](NC(=O)OC)C(C)C)[nH]c5c4)N3c3ccc(C4CCCCC4)c(F)c3)ccc2[nH]1)C(C)C [Example 4.8, methyl {(2S)-1-[(2S)-2-{5-[(2R,5R)-1-(4-cyclohexyl-3-fluorophenyl)-5-{2-[(2S)-1-{(2S)-2-[(methoxycarbonyl)amino]-3-methylbutanoyl}pyrrolidin-2-yl]-1H-benzimidazol-6-yl}pyrrolidin-2-yl]-1H-benzimidazol-2-yl}pyrrolidin-1-yl]-3-methyl-1-oxobutan-2-yl}carbamate] | < 0.1 nM |
| COC(=O)N[C@H](C(=O)N1CCC[C@H]1c1nc2cc([C@H]3CC[C@H](c4ccc5[nH]c([C@@H]6CCCN6C(=O)[C@@H](NC(=O)OC)C(C)C)nc5c4)N3c3ccc(OCC4COCO4)cc3)ccc2[nH]1)C(C)C (stereo partly drawn) [Example 2.4, methyl {(2S)-1-[(2S)-2-{5-[(2R,5R)-1-[4-(1,3-dioxolan-4-ylmethoxy)phenyl]-5-{2-[(2S)-1-{(2S)-2-[(methoxycarbonyl)amino]-3-methylbutanoyl}pyrrolidin-2-yl]-1H-benzimidazol-5-yl}pyrrolidin-2-yl]-1H-benzimidazol-2-yl}pyrrolidin-1-yl]-3-methyl-1-oxobutan-2-yl}carbamate] | < 0.1 nM |
| COC(=O)N[C@H](C(=O)N1CCC[C@H]1c1nc2ccc([C@H]3CC[C@H](c4ccc5nc([C@@H]6CCCN6C(=O)[C@@H](NC(=O)OC)C(C)C)[nH]c5c4)N3c3cc(F)c(N4CCC(c5cccc6ccccc56)CC4)c(F)c3)cc2[nH]1)C(C)C [Example 2.15, methyl {(2S)-1-[(2S)-2-{5-[(2R,5R)-1-{3,5-difluoro-4-[4-(1-naphthyl)piperidin-1-yl]phenyl}-5-{2-[(2S)-1-{(2S)-2-[(methoxycarbonyl)amino]-3-methylbutanoyl}pyrrolidin-2-yl]-1H-benzimidazol-5-yl}pyrrolidin-2-yl]-1H-benzimidazol-2-yl}pyrrolidin-1-yl]-3-methyl-1-oxobutan-2-yl}carbamate] | < 0.1 nM |
